Measured values: paper PMC9297976 (Journal of Applied Toxicology, 2021)
Read-outs that look alike come from different tables or passages of the source.

Columns and labels:
[1] = biological target: T1, medaka Esr1 (mEsr1) (Oryzias latipes, UniProt P50241); assay: cell-based; parameters: species or system Japanese medaka (Oryzias latipes); conditions: for In vitro positive: Esr: mode of action in which EC50 or PC10 was obtained in RGA
T1 sequence (P50241 1-620): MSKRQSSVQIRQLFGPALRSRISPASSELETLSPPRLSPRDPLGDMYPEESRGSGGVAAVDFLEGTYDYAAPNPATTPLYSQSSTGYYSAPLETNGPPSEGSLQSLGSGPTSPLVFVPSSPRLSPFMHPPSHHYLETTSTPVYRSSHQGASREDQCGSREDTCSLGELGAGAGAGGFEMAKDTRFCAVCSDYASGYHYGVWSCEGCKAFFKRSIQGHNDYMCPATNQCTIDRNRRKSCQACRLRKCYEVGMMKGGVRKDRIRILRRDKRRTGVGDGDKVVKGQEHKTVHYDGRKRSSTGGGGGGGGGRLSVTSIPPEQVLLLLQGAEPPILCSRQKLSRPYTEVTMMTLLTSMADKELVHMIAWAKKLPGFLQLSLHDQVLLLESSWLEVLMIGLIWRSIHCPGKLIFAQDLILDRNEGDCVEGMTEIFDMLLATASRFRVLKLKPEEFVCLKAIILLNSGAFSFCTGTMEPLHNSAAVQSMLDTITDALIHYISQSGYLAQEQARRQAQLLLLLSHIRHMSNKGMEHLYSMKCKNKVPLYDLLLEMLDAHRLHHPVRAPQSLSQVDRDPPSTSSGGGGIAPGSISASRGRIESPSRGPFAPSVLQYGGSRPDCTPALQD

[2] = biological target: T1, medaka Esr1 (mEsr1); assay: Medaka Esr1 reporter gene assay, antagonist assay; type: cell-based, Japanese medaka (Oryzias latipes); conditions: E2 spiked at 1.0 nM (B); MAC = 1.0 × 10^−5 M
[3] = biological target: T2, medaka ARβ (mArβ) (Oryzias latipes, UniProt D1MV73); assay: Medaka ARβ reporter gene assay, agonist assay; type: cell-based, Japanese medaka (Oryzias latipes); conditions: MAC = 1.0 × 10^−5 M
T2 sequence (D1MV73 1-744): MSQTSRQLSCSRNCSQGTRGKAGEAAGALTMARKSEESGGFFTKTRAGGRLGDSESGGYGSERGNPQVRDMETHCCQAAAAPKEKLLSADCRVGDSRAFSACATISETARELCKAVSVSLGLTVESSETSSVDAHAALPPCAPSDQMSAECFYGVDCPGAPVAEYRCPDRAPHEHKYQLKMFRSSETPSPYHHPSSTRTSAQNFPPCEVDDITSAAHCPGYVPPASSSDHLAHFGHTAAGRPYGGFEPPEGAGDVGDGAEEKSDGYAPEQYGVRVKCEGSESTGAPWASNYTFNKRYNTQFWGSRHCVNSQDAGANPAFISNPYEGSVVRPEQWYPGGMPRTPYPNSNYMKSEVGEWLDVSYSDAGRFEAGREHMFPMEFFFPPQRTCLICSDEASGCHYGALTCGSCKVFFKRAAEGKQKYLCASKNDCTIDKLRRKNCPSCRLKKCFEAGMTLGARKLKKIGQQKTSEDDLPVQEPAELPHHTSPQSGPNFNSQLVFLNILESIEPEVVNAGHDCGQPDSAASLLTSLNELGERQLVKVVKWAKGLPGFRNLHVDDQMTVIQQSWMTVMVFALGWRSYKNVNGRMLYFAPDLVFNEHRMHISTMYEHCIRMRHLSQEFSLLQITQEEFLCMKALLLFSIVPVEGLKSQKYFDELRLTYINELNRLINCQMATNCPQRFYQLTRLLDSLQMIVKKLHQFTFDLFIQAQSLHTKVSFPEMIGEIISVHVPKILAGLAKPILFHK

[4] = biological target: T2, medaka ARβ (mArβ); assay: Medaka ARβ reporter gene assay, antagonist assay; type: cell-based, Japanese medaka (Oryzias latipes)
[5] = test system: Japanese medaka (Oryzias latipes); assay: Fish Short‐Term Reproduction Assay; type: in vivo; conditions: for LOECREPRO: LOEC on reproduction (fecundity and/or fertility); for LOECTOX: lowest observed effect concentration on mortality; for GSI Female / GSI Male / HSI Female / HSI Male / Length Female / Length Male / Weight Female / Weight Male: completion of exposure
[6] = 100 μg/L measured, 21 d, sig. ↓ vs control
[7] = measured concentration 5.69 μg/L
[8] = measured concentration 28.8 μg/L
[9] = measured concentration 100 μg/L
[10] = 18.8 μg/L measured, 21 d, sig. ↑ vs control
[11] = 51.8 μg/L measured, 21 d, sig. ↑ vs control
[12] = 51.8 μg/L measured, 21 d, sig. ↓ vs control
[13] = 170 μg/L measured, 21 d, sig. ↑ vs control
[14] = measured concentration 5.63 μg/L
[15] = measured concentration 18.8 μg/L
[16] = measured concentration 51.8 μg/L
[17] = measured concentration 170 μg/L

## CCC(CC)Nc1c([N+](=O)[O-])cc(C)c(C)c1[N+](=O)[O-] [PDM, Pendimethalin]
[1]
  EC50: 3.3 µM
  In vitro positive: Esr: Esr
[2]
  Antagonistic activity: NE (MAC = 1.0 × 10^−5 M)^(B)
[3]
  Agonistic activity: NE (MAC = 1.0 × 10^−5 M)
[4]; Antagonistic activity IC50, 11‐KT spiked at 50 nM (D)
  IC50: 3.1 µM
[4]; mode of action in which IC50 or IC30 was obtained in RGA
  In vitro positive: aAr: aAr
[4]; transcriptional activity on mArβ by 11KT
  Antagonistic activity on mArβ (in words): inhibitory potency
[5]; 5.69 μg/L measured, 21 d
  Fertility rate: 93 ± 0.9%
  Hepatic VTG, female: 649 ± 200 ng/mg‐liver
  Hepatic VTG, male: 0.5 ± 0.0 ng/mg‐liver
  Mortality: 0.0%
  Mortality, number of dead fish: 0
  Number of fertilized eggs (per female per day): 19 ± 3.1
  Number of total eggs (per female per day): 21 ± 3.4
  SSC female (joint plates with papillary processes): 0 ± 0
  SSC male (joint plates with papillary processes): 85 ± 11
[5]; 28.8 μg/L measured, 21 d
  Fertility rate: 88 ± 4.9%
  Hepatic VTG, female: 933 ± 692 ng/mg‐liver
  Hepatic VTG, male: 5.7 ± 6.6 ng/mg‐liver
  Mortality: 4.2%
  Mortality, number of dead fish: 1
  Number of fertilized eggs (per female per day): 18 ± 3.6
  Number of total eggs (per female per day): 20 ± 3.9
  SSC female (joint plates with papillary processes): 0 ± 0
  SSC male (joint plates with papillary processes): 80 ± 8.2
[5]; 100 μg/L measured, 21 d
  Hepatic VTG, female: 813 ± 157 ng/mg‐liver
  Mortality: 8.3%
  Mortality, number of dead fish: 2
  Number of total eggs (per female per day): 19 ± 2.1
  SSC female (joint plates with papillary processes): 0 ± 0
  SSC male (joint plates with papillary processes): 80 ± 13
[5]; 100 μg/L measured, 21 d, sig. ↑ vs control
  Hepatic VTG, male: 774 ± 290 ng/mg‐liver
[5]; [6]
  Fertility rate: 62 ± 11%
  Number of fertilized eggs (per female per day): 12 ± 2.3
[5]; 21 d
  LOEC, elevated hepatic VTG in males: 100 µg/L
[5]
  LOECREPRO: 100 µg/L
  LOECTOX: ND (>100) μg/L
[5]; Oryzias latipes, 504 h, read-out: LOECmVTG
  minimal effective concentration: 0.1 µg/mL
[5]; at concentrations that did not affect number of total eggs
  Fertility rate (in words): significant decrease
[5]; concentrations without overt toxicity
  LOECREPRO (reduction in fecundity or fertility): 100 µg/L
[5]; [7]
  GSI Female: 10.7 ± 0.8%
  GSI Male: 0.64 ± 0.11%
  HSI Female: 4.5 ± 0.70%
  HSI Male: 2.7 ± 0.16%
  Length Female: 32.4 ± 0.7 mm
  Length Male: 31.9 ± 0.7 mm
  Weight Female: 427 ± 25 mg
  Weight Male: 366 ± 25 mg
[5]; [8]
  GSI Female: 11.3 ± 0.8%
  GSI Male: 0.55 ± 0.11%
  HSI Male: 2.7 ± 0.28%
  Length Female: 33.1 ± 0.9 mm
  Length Male: 32.2 ± 0.2 mm
  Weight Female: 455 ± 46 mg
  Weight Male: 393 ± 20 mg
[5]; [9]
  GSI Female: 9.7 ± 0.3%
  GSI Male: 0.60 ± 0.20%
  HSI Female: 4.4 ± 1.04%
  HSI Male: 2.9 ± 0.45%
  Length Female: 31.4 ± 0.8 mm
  Length Male: 31.9 ± 0.7 mm
  Weight Female: 423 ± 30 mg
  Weight Male: 389 ± 28 mg

## 4‐Nonylphenol (branched) [Chemical 4NP]
[1]
  In vitro positive: Esr: Esr
[1]; read-out: Agonistic activity EC50, HEK293 cells
  EC50: 0.022 µM
[2]
  Antagonistic activity: NE (MAC = 1.0 × 10^−5 M)^(B)
[3]
  Agonistic activity: NE (MAC = 1.0 × 10^−5 M)
[4]; 11‐KT spiked at 50 nM (D), MAC = 1.0 × 10^−5 M
  Antagonistic activity: NE (MAC = 1.0 × 10^−5 M)^(D)
[5]; 5.63 μg/L measured, 21 d
  Fertility rate: 97 ± 2.2%
  Hepatic VTG, female: 866 ± 277 ng/mg‐liver
  Mortality: 0.0%
  Mortality, number of dead fish: 0
  Number of fertilized eggs (per female per day): 20 ± 1.2
  Number of total eggs (per female per day): 21 ± 0.9
  SSC female (joint plates with papillary processes): 0 ± 0
  SSC male (joint plates with papillary processes): 92 ± 15
[5]; 5.63 μg/L measured, 21 d, sig. ↑ vs control
  Hepatic VTG, male: 32 ± 31 ng/mg‐liver
[5]; 18.8 μg/L measured, 21 d
  Fertility rate: 94 ± 7.7%
  Mortality: 0.0%
  Mortality, number of dead fish: 0
  Number of fertilized eggs (per female per day): 17 ± 5.4
  Number of total eggs (per female per day): 18 ± 4.9
  SSC female (joint plates with papillary processes): 0 ± 0
  SSC male (joint plates with papillary processes): 79 ± 21
[5]; [10]
  Hepatic VTG, female: 1,153 ± 300 ng/mg‐liver
  Hepatic VTG, male: 375 ± 320 ng/mg‐liver
[5]; 51.8 μg/L measured, 21 d
  Mortality: 0.0%
  Mortality, number of dead fish: 0
  SSC female (joint plates with papillary processes): 0 ± 0
  SSC male (joint plates with papillary processes): 97 ± 13
[5]; [11]
  Hepatic VTG, female: 1,348 ± 258 ng/mg‐liver
  Hepatic VTG, male: 2,431 ± 1,455 ng/mg‐liver
[5]; [12]
  Fertility rate: 61 ± 10%
  Number of total eggs (per female per day): 13 ± 3.0
[5]; 170 μg/L measured, 21 d
  Mortality: 4.2%
  Mortality, number of dead fish: 1
  SSC female (joint plates with papillary processes): 0 ± 0
  SSC male (joint plates with papillary processes): 87 ± 12
[5]; [13]
  Hepatic VTG, female: 1,212 ± 506 ng/mg‐liver
  Hepatic VTG, male: 5,009 ± 1830 ng/mg‐liver
[5]; 170 μg/L measured, 21 d, sig. ↓ vs control
  Fertility rate: 33 ± 9.7%
[5]; 21 d
  Change of hepatic VTG levels in females (in words): significant increase
  Fecundity, number of total eggs (in words): statistically significant decrease
  LOEC, elevated hepatic VTG in males: 5.63 µg/L
[5]; LOEC on VTG induction in males
  LOECmVTG: 5.63 µg/L
[5]
  LOECREPRO: 51.8 µg/L
  LOECTOX: ND (>170) μg/L
[5]; [14]
  GSI Female: 7.8 ± 1.6%
  GSI Male: 1.02 ± 0.07%
  HSI Female: 3.4 ± 0.55%
  HSI Male: 1.7 ± 0.10%
  Length Female: 36.7 ± 1.3 mm
  Length Male: 36.8 ± 1.3 mm
  Weight Female: 535 ± 82 mg
  Weight Male: 515 ± 45 mg
[5]; [15]
  GSI Female: 8.9 ± 0.6%
  GSI Male: 1.08 ± 0.06%
  HSI Female: 4.1 ± 0.59%
  HSI Male: 1.7 ± 0.28%
  Length Female: 35.5 ± 1.2 mm
  Length Male: 37.5 ± 0.6 mm
  Weight Female: 500 ± 46 mg
  Weight Male: 552 ± 34 mg
[5]; [16]
  GSI Female: 7.7 ± 0.6%
  GSI Male: 1.15 ± 0.20%
  HSI Female: 4.2 ± 0.66%
  HSI Male: 2.0 ± 0.22%
  Length Female: 36.4 ± 0.8 mm
  Length Male: 37.6 ± 1.2 mm
  Weight Female: 537 ± 45 mg
  Weight Male: 552 ± 69 mg
[5]; [17]
  GSI Female: 7.9 ± 1.5%
  GSI Male: 1.05 ± 0.15%
  HSI Female: 3.9 ± 0.58%
  HSI Male: 2.4 ± 0.10%
  Length Female: 36.0 ± 1.6 mm
  Length Male: 38.6 ± 1.5 mm
  Weight Female: 540 ± 64 mg
  Weight Male: 602 ± 64 mg
